Test results published in patent US8951756B2, “Alkaline feed” (Hoffmann-La Roche Inc., priority 2010, dated 2015).
≈ marks a conversion by molar mass, not a printed value. Each block holds one compound with its values, some of them ahead of it.

Columns and labels:
physchem [1] = conditions: water
[2] = at 20 °C; cited from earlier work
physchem [3] = conditions: aqueous buffer, thermodynamic from solid
Description: (§1) The calculated amount of Leucine was weighted into a 500 ml flask. After addition of 250 ml deionized water the solution is sterilized by autoclavation. Thereafter 250 ml of a 25% (w/v) ammonia solution is added and determined whether the Leucine was dissolved or not. After dissolution of the Leucine the final volume of the solution was determined.

[4] = Determination of solubility of Leucine in an ammonia solution; conditions: for soluble: 250 ml water + 250 ml 25% (w/v) ammonia solution
Description: as §1

SMILES: NC(=O)CC[C@H](N)C(=O)O [glutamine]
solubility (physchem [1]; 18 °C): < 50 mg/mL

SMILES: CC(C)C[C@H](N)C(=O)O [leucine]
solubility (physchem [1]; 20 °C): < 50 mg/mL | solubility (physchem [3]): 76 mg/mL (≈ 579 mM) | solubility in alkaline solution relative to solubility in water ([4]; 12.5% (w/v) ammonia versus water at 20 °C): more than three times | soluble ([4]; Leucine concentration 17 g/l): yes | soluble ([4]; Leucine concentration 18 g/l): yes | soluble ([4]; Leucine concentration 19 g/l): yes | soluble ([4]; Leucine concentration 20 g/l): yes | soluble ([4]; Leucine concentration 21 g/l): yes | soluble ([4]; Leucine concentration 25 g/l): yes | soluble ([4]; Leucine concentration 30 g/l): yes | soluble ([4]; Leucine concentration 40 g/l): yes | soluble ([4]; Leucine concentration 50 g/l): yes | soluble ([4]; Leucine concentration 60 g/l): yes | soluble ([4]; Leucine concentration 70 g/l): yes | soluble ([4]; Leucine concentration 71 g/l): yes | soluble ([4]; Leucine concentration 72 g/l): yes | soluble ([4]; Leucine concentration 73 g/l): yes | soluble ([4]; Leucine concentration 74 g/l): yes | soluble ([4]; Leucine concentration 75 g/l): yes | soluble ([4]; Leucine concentration 76 g/l): yes | soluble ([4]; Leucine concentration 77 g/l): no

SMILES: N[C@@H](Cc1c[nH]c2ccccc12)C(=O)O [tryptophane]
solubility in water [2]: 10 mg/mL (≈ 49 mM) | solubility (physchem [1]; 20 °C): < 50 mg/mL

SMILES: CC(C)[C@H](N)C(=O)O [valine]
solubility in water [2]: 88 mg/mL (≈ 751 mM)

More lines, main results first:

solubility (physchem [1]; 20 °C): < 50 mg/mL
SMILES: N[C@@H](Cc1c[nH]cn1)C(=O)O [histidine]

solubility (physchem [1]; 20 °C): < 50 mg/mL
SMILES: CC[C@H](C)[C@H](N)C(=O)O [isoleucine]
solubility in water [2]: 40 mg/mL (≈ 305 mM)

solubility (physchem [1]; 20 °C): < 50 mg/mL
SMILES: CSCC[C@H](N)C(=O)O [methionine]

solubility (physchem [1]; 20 °C): < 50 mg/mL
SMILES: N[C@@H](Cc1ccccc1)C(=O)O [phenylalanine]
